The source of these data is patent US20240217990A1 (Gilead Sciences, Inc., priority 2021, published 2024).

For one assay, the target named is T1, TLR8 (Homo sapiens, UniProt Q9NR97).
T1 construct: Human peripheral blood mononuclear cells (PBMCs) consist of lymphocytes, monocytes and dendritic cells that express TLR7, TLR8 and TLR9; endogenous in cells; host or cells: cryopreserved human PBMCs from healthy donors
T1 sequence (Q9NR97 27-1041): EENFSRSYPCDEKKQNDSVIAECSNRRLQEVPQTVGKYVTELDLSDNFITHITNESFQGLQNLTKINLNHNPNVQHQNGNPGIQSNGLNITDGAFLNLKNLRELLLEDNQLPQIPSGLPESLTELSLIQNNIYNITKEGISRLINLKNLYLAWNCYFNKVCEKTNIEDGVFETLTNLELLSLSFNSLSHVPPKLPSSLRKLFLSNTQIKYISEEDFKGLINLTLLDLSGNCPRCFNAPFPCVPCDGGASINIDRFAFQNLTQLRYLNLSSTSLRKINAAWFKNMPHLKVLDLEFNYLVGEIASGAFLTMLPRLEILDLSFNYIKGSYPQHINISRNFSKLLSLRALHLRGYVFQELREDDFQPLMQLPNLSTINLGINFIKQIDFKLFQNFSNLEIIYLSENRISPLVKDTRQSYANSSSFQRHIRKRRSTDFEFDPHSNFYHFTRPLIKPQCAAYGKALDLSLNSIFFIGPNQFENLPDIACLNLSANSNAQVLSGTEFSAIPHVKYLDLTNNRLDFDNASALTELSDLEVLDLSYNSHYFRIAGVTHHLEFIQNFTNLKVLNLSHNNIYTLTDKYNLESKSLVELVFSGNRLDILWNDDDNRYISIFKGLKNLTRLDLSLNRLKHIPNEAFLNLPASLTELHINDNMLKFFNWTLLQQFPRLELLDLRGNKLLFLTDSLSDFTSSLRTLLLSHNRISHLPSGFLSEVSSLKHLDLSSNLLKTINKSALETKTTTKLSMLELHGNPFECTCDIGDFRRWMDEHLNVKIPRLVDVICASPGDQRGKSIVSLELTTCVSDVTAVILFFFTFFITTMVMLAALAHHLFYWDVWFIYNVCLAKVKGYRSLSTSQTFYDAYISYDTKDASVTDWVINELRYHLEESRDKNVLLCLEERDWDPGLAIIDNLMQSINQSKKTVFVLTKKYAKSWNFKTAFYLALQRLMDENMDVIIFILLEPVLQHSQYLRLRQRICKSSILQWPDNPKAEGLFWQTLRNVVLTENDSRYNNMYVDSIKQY
In words: TLR8 human PBMC cell-based assay (antagonist, Compound A stimulated cytokine release). The following applies: human PBMCs; TLR8 agonist Compound A 800 nM, 6 hours; cytokines (TNFa and IL 12p40) in supernatant; read-out: TLR-8 EC50. The method, boiled down: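 Cryopreserved donor PBMCs (100,000/well, RPMI + 10% FBS) were preincubated 1 h with antagonist (10-point dose response, quadruplicate), then stimulated with Compound A (800 nM final) for 6 h at 37 °C. TNFa and IL-12p40 in supernatants were measured by electrochemiluminescence; sigmoidal fits gave EC50.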

For the next assay, the target named is T2, TLR7 (Homo sapiens, UniProt Q9NYK1).
T2 construct: Human peripheral blood mononuclear cells (PBMCs) consist of lymphocytes, monocytes and dendritic cells that express TLR7, TLR8 and TLR9; endogenous in cells; host or cells: cryopreserved human PBMCs from healthy donors
T2 sequence (Q9NYK1 27-1049): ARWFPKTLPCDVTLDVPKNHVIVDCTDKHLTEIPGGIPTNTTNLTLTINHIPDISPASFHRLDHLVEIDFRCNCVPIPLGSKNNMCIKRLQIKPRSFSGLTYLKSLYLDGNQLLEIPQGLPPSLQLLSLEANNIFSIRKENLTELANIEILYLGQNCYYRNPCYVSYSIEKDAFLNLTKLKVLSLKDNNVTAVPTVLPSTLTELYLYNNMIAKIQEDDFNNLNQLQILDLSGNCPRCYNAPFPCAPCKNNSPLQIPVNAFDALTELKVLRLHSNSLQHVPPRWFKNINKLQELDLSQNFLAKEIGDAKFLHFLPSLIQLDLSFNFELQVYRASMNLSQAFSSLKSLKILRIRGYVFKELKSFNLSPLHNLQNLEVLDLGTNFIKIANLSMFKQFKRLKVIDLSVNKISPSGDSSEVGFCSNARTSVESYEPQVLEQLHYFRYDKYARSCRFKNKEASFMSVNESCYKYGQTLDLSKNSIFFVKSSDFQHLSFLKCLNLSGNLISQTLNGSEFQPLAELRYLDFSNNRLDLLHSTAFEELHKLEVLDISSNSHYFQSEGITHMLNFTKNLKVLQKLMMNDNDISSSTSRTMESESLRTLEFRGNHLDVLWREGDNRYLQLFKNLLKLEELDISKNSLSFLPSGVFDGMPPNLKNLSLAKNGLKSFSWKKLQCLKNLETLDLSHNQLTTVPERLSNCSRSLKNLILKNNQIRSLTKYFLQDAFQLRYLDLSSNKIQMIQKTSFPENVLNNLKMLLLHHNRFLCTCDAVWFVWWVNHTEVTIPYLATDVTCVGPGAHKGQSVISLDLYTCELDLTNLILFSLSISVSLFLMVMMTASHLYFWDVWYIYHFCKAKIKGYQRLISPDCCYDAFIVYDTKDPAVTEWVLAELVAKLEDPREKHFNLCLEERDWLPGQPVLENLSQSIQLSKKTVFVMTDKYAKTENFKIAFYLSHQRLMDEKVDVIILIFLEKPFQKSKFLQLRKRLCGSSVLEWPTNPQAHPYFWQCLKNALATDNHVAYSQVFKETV
In words: TLR7 human PBMC cell-based assay (antagonist, GS-986 stimulated cytokine release). The conditions noted are these: human PBMCs; TLR7 agonist GS-986 400 nM, 6 hours; cytokines (IL-6 and IFNα) in supernatant; read-out: TLR-7 EC50. The method, boiled down: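 EC50 derived by sigmoidal fitting of IL-6 and IFNα levels, quantified by electrochemiluminescence in supernatants of human PBMCs given 400 nM GS-986 for 6 h. Cells (100,000/well in RPMI-1640, 10% FBS) had received test antagonist 1 h beforehand, 10 doses in quadruplicate, at 37 °C.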

As to `Cc1cc(-c2[nH]c3cc(C(=O)N4C[C@H](N)C[C@H](C(F)(F)F)C4)sc3c2C(C)C)cn2ncnc12` [Example 59], the half-maximal effective concentration (EC50) came out at 15.4 nM on TLR8 and 24.1 nM on TLR7.
For `Cc1cc(-c2[nH]c3cc(C(=O)N(C)[C@@H]4CNC[C@H]4F)sc3c2C(C)C)cn2ncnc12` [Example 60], in that order: 30.8 nM and 4.1 nM.
For `Cc1cc(-c2[nH]c3cc(C(=O)N(C)[C@H]4CNC[C@H]4F)sc3c2C(C)C)cn2ncnc12` [Example 61] the same measures were 17.4 nM and 7.9 nM.
Take `CCc1c(-c2cc(C)c3ncnn3c2)[nH]c2cc(C(=O)N3CCNCC3)sc12` [Example 62, [6-ethyl-5-(8-methyl-[1,2,4]triazolo[1,5-a]pyridin-6-yl)-4H-thieno[3,2-b]pyrrol-2-yl]-piperazin-1-yl-methanone]: the EC50 at TLR8 was 5.7 nM; on TLR7, 5.5 nM.
As for `CCc1c(-c2cc(C)c3ncnn3c2)[nH]c2cc(C(=O)N(C)C3CCNCC3)sc12` [Example 63], the EC50 on TLR8 was 15.6 nM; on TLR7, 0.7 nM.
For `COc1cc(-c2[nH]c3cc(C(=O)N4CCNCC4)sc3c2C(C)C)cn2ncnc12` [Example 64, (6-isopropyl-5-(8-methoxy-[1,2,4]triazolo[1,5-a]pyridin-6-yl)-4H-thieno[3,2-b]pyrrol-2-yl)(piperazin-1-yl)methanone], in that order: 3.3 nM and 0.9 nM.
For `Cc1cc(-c2[nH]c3cc(C(=O)N4CCNCC4)sc3c2C(C)C)cn2nnnc12` [Example 65] the same measures were 5.4 nM and 1.8 nM.
Consider `CC(C)c1c(-c2ccc3ncnn3c2)[nH]c2cc(C(=O)N3CCNCC3)sc12` [Example 66], for which the EC50 on TLR8 turned out to be 16.1 nM; on TLR7 it was 25.7 nM.
For `CC(C)c1c(-c2ccc3nccn3c2)[nH]c2cc(C(=O)N3CCNCC3)sc12` [Example 67], in that order: 131 nM and 6.3 nM.
For `CC(C)c1c(-c2ccn3ccnc3c2)[nH]c2cc(C(=O)N3CCNCC3)sc12` [Example 68] the same measures were greater than 1000 nM and 822 nM.
Take `Cc1cc(-c2[nH]c3cc(C(=O)N4CCN(CCO)CC4)sc3c2C(C)C)cn2ncnc12` [Example 69]: the EC50 came to 9.2 nM on TLR8 and 24.4 nM at TLR7.
For `Cc1cc(-c2[nH]c3cc(C4=NCC5(CCNCC5)O4)sc3c2C(C)C)cn2ncnc12` [Example 70], in that order: 9.3 nM and 0.2 nM.
Turning to `Cc1cc(-c2[nH]c3cc(-c4nnc(C5CCC(N)CC5)o4)sc3c2C(C)C)cc(C)n1` (centres unmarked) [Example 71], the EC50 was 23.6 nM at TLR8 and 22.3 nM on TLR7.
`CN[C@@H]1CCN(C(=O)c2cc3[nH]c(-c4cc(C)c5ncnn5c4)c(C(C)C)c3s2)C1` [Example 72]: the EC50 at TLR8 amounted to 1.1 nM; on TLR7, 1.9 nM.
For `CN[C@H]1CCN(C(=O)c2cc3[nH]c(-c4cc(C)c5ncnn5c4)c(C(C)C)c3s2)C1` [Example 73] the same measures were 1.7 nM and 4.9 nM.
Take `Cc1cc(-c2[nH]c3cc(C(=O)N4C[C@@H]5[C@@H](N)[C@@H]5C4)sc3c2C(C)C)cn2ncnc12` [Example 74]: the half-maximal effective concentration (EC50) at TLR8 and on TLR7 was 10.5 nM each time.
Consider `Cc1cc(-c2[nH]c3cc(C(=O)N(C)[C@H]4[C@@H]5CNC[C@@H]54)sc3c2C(C)C)cn2ncnc12` [Example 75], for which the EC50 at TLR8 turned out to be 14 nM; at TLR7 it was 1.6 nM.
For `Cc1cc(-c2[nH]c3cc(C(=O)N(C)[C@@H]4CCNC[C@H]4F)sc3c2C(C)C)cn2ncnc12` [Example 76] the same measures were 6.5 nM and 0.6 nM.
For `Cc1cc(-c2[nH]c3cc(C(=O)N4C[C@@H](N)C[C@@H](C(F)(F)F)C4)sc3c2C(C)C)cn2ncnc12` [Example 77], in that order: 40.3 nM and 9 nM.
With `Cc1cc(-c2[nH]c3cc(C(=O)N(C)[C@H]4CCNC[C@@H]4F)sc3c2C(C)C)cn2ncnc12` [Example 78], the EC50 stood at 8.6 nM at TLR8 and 0.4 nM on TLR7.
For `Cc1cc(-c2[nH]c3cc(C(=O)N(C)[C@@H]4CCNC[C@@H]4F)sc3c2C(C)C)cn2ncnc12` [Example 79], in that order: 9.1 nM and 0.3 nM.
For `Cc1cc(-c2[nH]c3cc(C(=O)N(C)[C@H]4CCNC[C@H]4F)sc3c2C(C)C)cn2ncnc12` [Example 80] the same measures were 9.5 nM and 0.5 nM.
For `Cc1cc(-c2[nH]c3cc(C(=O)N(C)[C@H]4CCNCC4(F)F)sc3c2C(C)C)cn2ncnc12` [Example 81], in that order: 91 nM and 10.3 nM.
For the molecule `Cc1cc(-c2[nH]c3cc(C(=O)N(C)[C@@H]4CCN(C5CCC5)C[C@@H]4F)sc3c2C(C)C)cn2ncnc12` [Example 83], the EC50 at TLR8 was 17.7 nM; at TLR7 it was 17.8 nM.
Regarding `Cc1cc(-c2[nH]c3cc(C(=O)N(C4CCC4)C4CCNCC4)sc3c2C(C)C)cn2ncnc12` [Example 84], the EC50 was 25.1 nM on TLR8 and 1.1 nM at TLR7.
For `Cc1cc(-c2[nH]c3cc(C(=O)N4CCNC(C)(C)C4)sc3c2C(C)C)cn2ncnc12` [Example 85] the same measures were 0.6 nM and 1.3 nM.
For `Cc1c(-c2[nH]c3cc(C(=O)N4CCNC(C)(C)C4)sc3c2C(C)C)cn2ncnc2c1C` [Example 86], in that order: 0.3 nM and 1 nM.
For `Cc1cc(-c2[nH]c3cc(C(=O)N4CCC[C@H](N)[C@@H]4C)sc3c2C(C)C)cn2ncnc12` [Example 87] the same measures were 13 nM and 0.5 nM.
For `Cc1cc(-c2[nH]c3cc(C(=O)N4CCC5CNCCC54)sc3c2C(C)C)cn2ncnc12` (centres unmarked) [Example 88], the values for the EC50 on TLR8 and at TLR7 were 4.6 nM and 0.5 nM, respectively.
For `Cc1cc(-c2[nH]c3cc(C(=O)N4CCC5CCNCC54)sc3c2C(C)C)cn2ncnc12` (centres unmarked) [Example 89], the half-maximal effective concentration (EC50) on TLR8 is 26.2 nM; at TLR7 it was 2.5 nM.
Take `Cc1cc(-c2[nH]c3cc(C(=O)N4CCC5CCNC5C4)sc3c2C(C)C)cn2ncnc12` (centres unmarked) [Example 90]: the EC50 on TLR8 came out at 9.9 nM; on TLR7, 1 nM.

The term EC50 denotes the concentration that produces a half-maximal response.
